Source: ChEMBL document CHEMBL3870326, “Synthesis and structure activity relationships of glycine amide derivatives as novel Vascular Adhesion Protein-1 inhibitors” (Bioorg Med Chem, 2017)
Values belong to the molecule of their own block, whether it stands above or below them.

Key:
[1] = in vitro; settings: PAMPA, pH 6.5
[2] = Solubility of the compound; type: physicochemical
[3] = Stability in Wistar rat blood assessed as parent compound remaining at 1 ug/ml after 1 hr by LC-MS/MS analysis; type: ADME, tissue-based; settings: read-out: Stability
[4] = Metabolic stability in liver microsomes (unknown origin); type: ADME
[5] = pampa, pH 6.5, 2 h, 50 µM
[6] = AUC (0 to 24 hrs) in Wistar rat plasma at 1 mg/kg, iv by LC-MS/MS analysis; type: ADME, organism-based; set-up: time < 24 hr, dose 1 mg/kg, route intravenous
[7] = Volume of distribution at steady state in Wistar rat plasma at 1 mg/kg, iv by LC-MS/MS analysis; type: ADME, organism-based; settings: read-out: Vdss
[8] = Cmax in Wistar rat plasma at 1 mg/kg, po by LC-MS/MS analysis; type: ADME, organism-based; set-up: dose 1 mg/kg, route oral
[9] = AUC (0 to 24 hrs) in Wistar rat plasma at 1 mg/kg, po by LC-MS/MS analysis; type: ADME, organism-based; set-up: dose 1 mg/kg, time < 24 hr, route oral
[10] = Total clearance in Wistar rat plasma at 1 mg/kg, iv by LC-MS/MS analysis; type: ADME, organism-based
[11] = Oral bioavailability in Wistar rat plasma at 1 mg/kg by LC-MS/MS analysis; type: ADME, organism-based
[12] = Half life in Wistar rat plasma at 1 mg/kg, iv by LC-MS/MS analysis; type: ADME, organism-based
[13] = Half life in Wistar rat plasma at 1 mg/kg, po by LC-MS/MS analysis; type: ADME, organism-based

Structure (SMILES): CCNC(=O)c1ccc(-c2cccc(CN(C)C(=O)CN)c2)cc1.Cl
- Papp at 2 h, 50 µM [1]: < 0.2 ×10⁻⁶ cm/s

- solubility [2]: Soluble
- remaining at 1 h, 1 ug/ml [3]: 33%
- Stability [4]: Stable
- Peff [5]: Permeable
Structure (SMILES): Cl.NCC(=O)NCc1cccc(-c2ccccc2)c1

Structure (SMILES): CCN(CC)C(=O)c1ccc(-c2cccc(CN(C)C(=O)CN)c2)cc1.O=C(O)C(=O)O
- Papp at 2 h, 50 µM [1]: 3.8 ×10⁻⁶ cm/s

Structure (SMILES): CN(Cc1cccc(-c2ccc(N3CCOCC3)cc2)c1)C(=O)CN.O=C(O)C(=O)O
- AUC(0-t) at 24 h [6]: 127 ng·h/mL
- Vd [7]: 6.06 L/kg
- Cmax [8]: 73.4 ng/mL
- Papp at 2 h, 50 µM [1]: 22.1 ×10⁻⁶ cm/s
- AUC(0-t) at 24 h [9]: 69.6 ng·h/mL
- clearance [10]: 134 mL/min/kg
- bioavailability [11]: 54.9%
- half-life [12]: 28.2 min
- half-life [13]: 34.8 min
